Results taken from patent EP0406111A1, “Substituted arylamines and heteroarylamines, process for their preparation and pharmaceutical composition containing them” (SOCIETE DE CONSEILS DE […] D'APPLICATIONS SCIENTIFIQUES …, priority 1989, dated 1991).
pIC50: −log10 of the molar value. Read-outs that look alike come from different tables or passages of the source.

How the values were obtained:
[1] = target: T1, capture de (³H)dopamine par les synaptosomes striataux de rat (Rattus norvegicus, UniProt P23977); experiment: biochemical
T1 construct: Les culots résultants P2 contenant les synaptosomes bruts sont ensuite utilisés sans purification supplémentaire; from tissue; host or cells: Wistar rat striatum, crude synaptosomes (P2 pellet)
T1 sequence (P23977 whole entry): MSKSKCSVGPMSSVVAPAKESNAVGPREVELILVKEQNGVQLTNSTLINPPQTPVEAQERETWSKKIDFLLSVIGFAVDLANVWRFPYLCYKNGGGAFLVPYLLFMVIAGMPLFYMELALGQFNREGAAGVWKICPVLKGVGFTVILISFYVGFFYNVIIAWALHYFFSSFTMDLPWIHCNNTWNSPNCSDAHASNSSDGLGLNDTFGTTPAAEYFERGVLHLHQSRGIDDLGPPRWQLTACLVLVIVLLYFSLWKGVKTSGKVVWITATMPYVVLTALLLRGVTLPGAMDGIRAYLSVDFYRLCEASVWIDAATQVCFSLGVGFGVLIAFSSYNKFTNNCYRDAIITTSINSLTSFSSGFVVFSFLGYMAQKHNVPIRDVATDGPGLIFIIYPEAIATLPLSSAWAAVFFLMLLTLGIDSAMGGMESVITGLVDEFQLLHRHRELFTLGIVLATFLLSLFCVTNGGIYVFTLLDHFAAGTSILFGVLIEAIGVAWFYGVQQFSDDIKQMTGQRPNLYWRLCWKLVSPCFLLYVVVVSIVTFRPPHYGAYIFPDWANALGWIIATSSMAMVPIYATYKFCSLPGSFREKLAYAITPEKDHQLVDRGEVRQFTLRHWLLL
Procedure: Ce test est pratiqué selon la méthode utilisée par Vignon et Lazdunski en opérant de la façon suivante. Des rats Wistar pesant 200-250g sont tués par dislocation cervicale. Leurs cerveaux sont rapidement prélevés et les striata sont dissé-qués sur la glace. Les striata sont ensuite homogéné-isés (10 allers-retours) avec un homogénéisant Potter dans 50 volumes de tampon Tris HCl 10 mM à pH 7,4 contenant 0,32 M de sucrose. L'homogénat est ensuite centrifugé à 1000g pendant 10min à 4°C, puis le surnageant obtenu est recentrifugé à 10000g pendant 20min à 4°C. Les culots résultants P2 contenant les synaptosomes bruts sont ensuite utilisés sans purification supplémentaire.
On ajoute alors de la dopamine tritiée ((³H)DA, Amersham) à une concentration finale de 5 nM pendant 5 min à 30°C, et on interrompt sa capture par filtration de 150 µl du milieu d'incubation sur des filtres en fibres de verre GF/B (Whatman). La radioactivité retenue par les filtres est mesurée dans un compteur à scintillation liquide (LKB)avec 3 ml d'ACS (Amersham) comme scintillant. La capture non spécifique est mesurée à 4°C dans des incubations parallèles : elle est ensuite sous-traite de la capture totale mesurée à 30°C.
Les composés à tester sont solubilisés au départ dans de l'eau à une concentration de 1mM et les autres concentrations sont obtenues par des dilutions successives de cette solution mère dans l'eau.

[2] = target: T2, complexe de recapture de la dopamine (Rattus norvegicus, UniProt P23977); experiment: biochemical; type: binding; conditions: for pIC50: read-out: [3H] BTCP IC50
T2 construct: expériences de compétition sur les membranes de striatum préparées comme ci-dessus; from tissue; host or cells: rat striatal membranes
T2 sequence (P23977 whole entry, one chain of several): as the sequence (P23977 whole entry) above
Procedure: Exemple 35 : Affinité des composés pour les sites de liaison de la (³H)BTCP sur les membranes striatales de cerveaux de rats.
Les striata de cerveaux de rats rapidement disséqués dans la glace sont homogénéisés avec un ultra turax pendant 30 s (position 6) dans 50 volumes d'une solution de sucrose 0,32 M tamponnée par du Tris-HCl 10 mM à pH = 7,4. L'homogénat est centrifugé à 4°C à 1000g pendant 10 mln, puis le surnageant obtenu est centrifugé à 40000 g à 4°C pendant 30 min et les culots obtenus sont repris dans 1 ml de tampon par striatum.
L'affinité des composés pour le complexe de recapture de la dopamine est déterminée par des expériences de compétition sur les membranes de striatum préparées comme ci-dessus. Le ligand radioactif utilisé est la (³H)BTCP (Service des Molécules Marquées du CEA, Saclay France) à 55Ci/mmol.
Après 90 min à 4°C, 3 aliquots de 250 µl sont filtrés sous vide sur des filtres de fibre de verre GF/B (Whatman). La liaison non spécifique est obtenue dans des expériences parallè-les réalisées en présence de 10 µM de BTCP non marquée. Elle est soustraite de la liaison totale pour obtenir la liaison spécifique.

[3] = target: récepteur de la PCP; experiment: Competition binding at the (3H)TCP sites on rat brain homogenates (Example 36); conditions: 1 nM (3H)TCP, 30 min at 25°C
Text: Exemple 36 : Affinité des composés pour les sites de liaison de la (³H)TCP sur les homogénats de cerveaux de rats.
Dans cet essai on mesure les affinités des composés pour le récepteur de la PCP par des expériences de compétition sur des homogénats de cerveaux de rats. Le ligand radioactif utilisé est la (³H)TCP à une activité spécifique de 62 Ci/mmol (Service des Molécules Marquées, CEA Saclay France).
Les cerveaux de rats (sans le cervelet et le tronc cérébral) sont homogénéisés à l'ultra turax dans 20 volumes de tampon Hepes-Tris 50 mM, pH 7,7. Après centrifugation pendant 30 min à 15000 g le culot est repris dans le même volume de tampon et recentrifugé dans les mêmes conditions. Le culot final est repris dans du tampon Hepes-Tris 50 mM, pH 7,7 de façon à obtenir une concentration en protéine de 6 à 8 mg/ml.
Les expériences de compétition sont réalisées en incubant pendant 30 min les membranes (concentration finale en protéine : 0,6 à 0,8 mg/ml) en milieu tampon 5 mM Hepes-Tris, pH 7,7 à 25°C, en présence d'une concentration fixe de ligand tritié (1 nM)et de concentrations croissantes de composés à tester. Trois échantillons de 600 µL sont ensuite filtrés sur filtres de fibres de verre GF/B prétraités par du PEI (polyéthylénimine) à 0,1%. Les filtres sont rincés avec 3x5ml de tampon Tris-HCl 10 mM, NaCl 100 mM et la radioactivité retenue est mesurée dans un compteur à scintillation liquide. La liaison non spécifique est obtenue en présence de TCP […].

[4] = Toxicity test in mice, 100 mg/kg intraperitoneal; parameters: species or system souris; conditions: mouse, in vivo, ip, 100 mg/kg i.p., read-out: Toxicité à 100 mg/kg i.p. % mortalité à 48 h
Procedure: Le tableau 6 annexé illustre les résultats d'essais de toxicité effectués chez la souris sur les amines substituées de l'invention à une dose de 100mg/kg par voie intrapéritonéale.

[5] = rat striatal synaptosomes, 5 nM (3H)DA, 5 min at 30°C, read-out: [3H] DA IC50
[6] = rat striatal membranes, 0,2 nM (3H)BTCP, 90 min at 4°C
[7] = ratio of IC50 at the PCP receptor to IC50 at the dopamine reuptake complex

## C[C@H]1CC[C@](c2cc3ccccc3s2)(N2CCCCC2)CC1 [composé n^o 20, (benzo(b)thiophényl-2)-1-t-méthyl-4-r-(pipéridino-1)-1 cyclohexane]
[1]; [5]
  pIC50: 7.67
[2]; [6]
  pIC50: 7.68
[2]; [7]
  Sélectivité IC50[^3H]TCP / IC50[^3H]BTCP: 5410
[3]
  pIC50: 3.95
[4]
  mortality at 48 h: 0%

## BrCC1CCCN(C2(c3cc4ccccc4s3)CCCCC2)C1 (stereo not drawn) [composé n^o 10, (benzo(b)thiophényl-2)-1 ((bromométhyl-3 pipéridino)-1)-1 cyclohexane]
[1]; [5]
  pIC50: 7.24
[2]; [6]
  pIC50: 7.46
[2]; [7]
  Sélectivité IC50[^3H]TCP / IC50[^3H]BTCP: >>2898
[3]
  pIC50: < 4.00
[4]
  mortality at 48 h: 0%

## CC1CCCN(C2(c3cc4ccccc4s3)CCCCC2)C1 (stereo not drawn) [composé n^o 2, (benzo(b)thiophényl-2)-1 ((méthyl-3 pipéridino)-1)-1 cyclohexane]
[1]; [5]
  pIC50: 8.03
[2]; [6]
  pIC50: 7.88
[2]; [7]
  Sélectivité IC50[^3H]TCP / IC50[^3H]BTCP: 3910
[3]
  pIC50: 4.28
[4]
  mortality at 48 h: 10%

## OC1CCN(C2(c3cc4ccccc4s3)CCCCC2)CC1 [composé 26, (benzo(b)thiophényl-2)-1( (ol-4-pipéridino)-1)-1 cyclohexane]
[2]; [6]
  pIC50: 7.80
[2]; [7]
  Sélectivité IC50[^3H]TCP / IC50[^3H]BTCP: 2006
[3]
  pIC50: 4.50

## CC1CC(C)CN(C2(c3cc4ccccc4s3)CCCCC2)C1 (stereo not drawn) [composé n^o 6, (benzo(b)thiophényl-2)-1 ((diméthyl-3,5 pipéridino)-1)-1 cyclohexane]
[1]; [5]
  pIC50: 7.83
[2]; [6]
  pIC50: 7.90
[2]; [7]
  Sélectivité IC50[^3H]TCP / IC50[^3H]BTCP: >>7874
[3]
  pIC50: < 4.00
[4]
  mortality at 48 h: 10%

## c1ccc2sc(C3(N4CCCCC4)CCCCC3)cc2c1 [BTCP, (benzo(b)thiophényl-2)-1 (pipéridino -1) cyclohexane, reference compound]
[1]
  pIC50: 7.86
[2]; rat
  Sélectivité IC50[^3H]TCP / IC50[^3H]BTCP: 2380
[2]
  pIC50: 8.08
[3]
  pIC50: 4.70
[4]
  mortality at 48 h: 0%

## c1ccc2oc(C3(N4CCCCC4)CCCCC3)cc2c1 [composé n^o 4, (benzo(b)furannyl-2)-1 (pipéridino-1)-1 cyclohexane]
[1]; [5]
  pIC50: 7.47
[2]; [6]
  pIC50: 7.72
[2]; [7]
  Sélectivité IC50[^3H]TCP / IC50[^3H]BTCP: 2094
[3]
  pIC50: 4.40
[4]
  mortality at 48 h: 10%

## C[C@H]1CC[C@@](c2cc3ccccc3s2)(N2CCCCC2)CC1 [composé n^o 21, (benzo(b)thiophényl-2)-1 c-méthyl-4-r-(pipéridino-1)-1 cyclohexane]
[1]; [5]
  pIC50: 8.03
[2]
  Sélectivité pour le complexe de recapture de la dopamine comparé au récepteur de la PCP, result in words: très bons résultats
[2]; [6]
  pIC50: 8.16
[2]; [7]
  Sélectivité IC50[^3H]TCP / IC50[^3H]BTCP: >>14493
[3]
  pIC50: < 4.00
[4]
  mortality at 48 h: 0%

## CCCN(CCC)C1(c2cc3ccccc3s2)CCCCC1 [composé no 3, (benzo(b)thiophényl-2)-1 (dipropylamino-1)-1 cyclohexane]
[1]; [5]
  pIC50: 7.89
[2]
  Sélectivité pour le complexe de recapture de la dopamine comparé au récepteur de la PCP, result in words: très bons résultats
[2]; [6]
  pIC50: 8.14
[2]; [7]
  Sélectivité IC50[^3H]TCP / IC50[^3H]BTCP: 58889
[3]
  pIC50: 3.37
[4]
  mortality at 48 h: 0%
